{"source": "patent US20080039444A1", "about": "“COMPOUNDS” (GLAXO GROUP LIMITED, priority 2006, published 2008)", "key": {"human H1 receptor": {"biological_target": "T1, human H1 receptor (Homo sapiens, UniProt P35367)", "T1 construct": "expressed in transfected cells", "T1 sequence (P35367 whole entry)": "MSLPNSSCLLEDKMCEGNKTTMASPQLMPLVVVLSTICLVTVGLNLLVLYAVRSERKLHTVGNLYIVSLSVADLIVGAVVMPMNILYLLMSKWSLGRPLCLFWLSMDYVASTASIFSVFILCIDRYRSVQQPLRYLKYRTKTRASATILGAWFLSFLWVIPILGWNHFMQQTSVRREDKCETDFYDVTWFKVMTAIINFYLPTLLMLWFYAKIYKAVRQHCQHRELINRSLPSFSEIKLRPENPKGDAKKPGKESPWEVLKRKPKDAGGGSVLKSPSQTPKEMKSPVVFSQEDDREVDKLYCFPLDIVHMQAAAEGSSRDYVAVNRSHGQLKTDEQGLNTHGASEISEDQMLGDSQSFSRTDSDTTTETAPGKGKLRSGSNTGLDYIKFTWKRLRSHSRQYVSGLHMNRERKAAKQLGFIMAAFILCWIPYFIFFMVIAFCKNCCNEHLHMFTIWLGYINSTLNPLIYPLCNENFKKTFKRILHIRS", "test": "Histamine H1 functional antagonist assay: antagonist duration after washout", "type": "cell-based", "settings": "at one or more time points", "experimental": "The human H1 receptor is cloned using known procedures described in the literature [Biochem. Biophys. Res. Commun., 201(2):894 (1994)]. Chinese hamster ovary (CHO) cells stably expressing the human H1 receptor are generated according to known procedures described in the literature [Br. J. Pharmacol., 117(6):1071 (1996)].\nHistamine H1 functional antagonist assay: Determination of antagonist pA2 and duration\nTo determine the antagonist duration, cells are cultured overnight in non-coated black-walled clear bottom 96-well tissue culture plates, are washed with PBS and are incubated with a concentration of antagonist chosen to give an approximate DR in the range 30-300. Following the 30 min antagonist incubation period, the cells are washed two or three times with 200 μl of PBS and then 100 μl Tyrodes buffer is added to each well to initiate antagonist dissociation. Following incubation for predetermined times, typically 30-270 min at 37° C., the cells are then washed again with 200 μl PBS and are incubated with 100 μl Tyrodes buffer containing Brilliant Black, probenecid and Fluo-4 for 45 min at 37° C., as described above. After this period, the cells are challenged with histamine in the FLIPR™ as described above. The dose ratio at each time point is used to determine the fractional H1 receptor occupancy by the following equation: fractional receptor occupancy=(DR-1)/DR. The decrease in receptor occupancy over time approximates to a straight line and is analysed by linear regression. The slope of this straight line fit is used as an index of the dissociation rate of the antagonist. The dose ratios for antagonist treated cells and for antagonist treated and washed cells at each time point are used to calculate a relative dose ratio (rel DR) which is also used as an index of antagonist duration. Antagonists with long duration of action produce rel DR values close to 1, and antagonists with short duration of action produce rel DR values that approaches the dose ratio value obtained for antagonist treatment alone."}, "[1]": {"test_system": "histamine-induced nasal congestion", "test": "Intranasal challenge method: whole body plethysmography, histamine-induced nasal congestion", "type": "in vivo, guinea pig", "settings": "24 hours after dosing, compared to azelastine; intranasal 1 mg/ml (FIG. 3, Example 24D)", "experimental": "FIG. 3: depicts the duration of 4-[(4-chlorophenyl)methyl]-2-({(2R)-1-[4-(4-{[3-(hexahydro-1H-azepin-1-yl)propyl]oxy}phenyl)butyl]-2-pyrrolidinyl}methyl)-1(2H)-phthalazinone, dihydrochloride salt (Example 24D) and azelastine in a conscious Guinea-Pig model of histamine-induced nasal congestion. Animals were exposed to histamine at the time indicated after an intranasal dose of 1 mg/ml of compound. Mean ±s.e. mean (n=6-10 per group).\nIntranasal Challenge Method: Whole Body Plethysmography\nFemale Dunkin-Hartley guinea pigs 150-250 g are sensitised twice daily for 5 days (week 1) with ovalbumin (OVA) and aluminium hydroxide (AI(OH)3 or Alum) in physiological saline, 25 μl/nostril. Solution is made up at 20 μg/ml OVA, 180 mg/ml Alum. During weeks 2 and 3, animals receive 25 μl/nostril of OVA (5 mg/ml) once daily. […]\nPretreatment with test compound is performed at various times prior to histamine challenge. Efficacy dose-response curves are determined 1 h after dosing whereas duration of action is studied up to 7 days post dose. […]\nAfter the stipulated pre-dose time has been reached, guinea pigs are re-anaesthetised with isoflurane and dosed with either 15 mM histamine or phosphate-buffered saline (PBS), (25 μl per nostril). […] Data are analysed using ANOVA with post-hoc Fishers LSD test (general linear models, Statistica®) and finally Hochberg adjustment. […]"}}, "data": [{"smiles": "O=c1c2ccccc2c(Cc2ccc(Cl)cc2)nn1C[C@H]1CCCN1CCCCc1ccc(OCCCN2CCCCCC2)cc1", "note": "[Example 24, 4-[(4-Chlorophenyl)methyl]-2-({(2R)-1-[4-(4-{[3-(hexahydro-1H-azepin-1-yl)propyl]oxy}phenyl)butyl]-2-pyrrolidinyl}methyl)-1(2H)-phthalazinone free base]", "values": [{"measurement": "duration of action compared with azelastine in the histamine H1 functional antagonist assay", "setting": "human H1 receptor", "result": "significantly longer duration of action than azelastine"}, {"measurement": "inhibition of nasal congestion in the Guinea Pig whole body plethysmography model", "setting": "[1]", "result": "statistically significant inhibition of nasal congestion"}]}]}
